ChEMBL document CHEMBL1153842, “Trioxaquines and heme-artemisinin adducts inhibit the in vitro formation of hemozoin better than chloroquine” (Antimicrob Agents Chemother, 2007)
Activity calls are given as the source filed them. The calls are words filed in the database; no cut-off is given here.

What was measured:
Format in all cases: functional
[1] = biological target: T1, Histidine-rich protein PFHRP-II (Plasmodium falciparum) (UniProt P05227); assay: Inhibition of beta-hematin formation at drug to heme molar equivalent ratio of 10 by infrared spectra measured after 18 hrs
T1 sequence (whole entry): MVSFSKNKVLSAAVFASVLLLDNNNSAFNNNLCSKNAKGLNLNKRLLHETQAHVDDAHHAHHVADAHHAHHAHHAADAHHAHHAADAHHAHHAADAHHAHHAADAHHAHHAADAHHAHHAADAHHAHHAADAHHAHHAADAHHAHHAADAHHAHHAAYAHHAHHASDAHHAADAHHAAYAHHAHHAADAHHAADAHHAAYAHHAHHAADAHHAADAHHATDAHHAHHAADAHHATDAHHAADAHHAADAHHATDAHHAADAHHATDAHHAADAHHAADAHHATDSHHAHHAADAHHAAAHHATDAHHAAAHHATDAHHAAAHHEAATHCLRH

[2] = biological target: T1, Histidine-rich protein PFHRP-II (Plasmodium falciparum); assay: Inhibition of beta-hematin formation at drug to heme molar equivalent ratio of 15 by infrared spectra measured after 18 hrs
[3] = biological target: T1, Histidine-rich protein PFHRP-II (Plasmodium falciparum); assay: Inhibition of beta-hematin formation at drug to heme molar equivalent ratio of 2 by infrared spectra measured after 18 hrs
[4] = biological target: T1, Histidine-rich protein PFHRP-II (Plasmodium falciparum); assay: Inhibition of beta-hematin formation at drug to heme molar equivalent ratio of 3 by infrared spectra measured after 18 hrs
[5] = biological target: T1, Histidine-rich protein PFHRP-II (Plasmodium falciparum); assay: Inhibition of beta-hematin formation at 1:1 drug to heme ratio by infrared spectra measured after 18 hrs

Question: `NCCNc1ccnc2cc(Cl)ccc12` was tested. Which Activity [1] did it give?
Answer: Its Activity is “Active”.

Question: How did the Activity [1] turn out when `CCN(CC)CCCC(C)Nc1ccnc2cc(Cl)ccc12` (centres undefined) was run?
Answer: Its Activity is “Active”.

Question: `COc1cc(NC(C)CCCN)c2ncccc2c1` (centres undefined) was tested. Which Activity [2] did it give?
Answer: Its Activity is “inactive”.

Question: `CO[C@H]1O[C@@H]2O[C@@]3(C)CC[C@H]4[C@H](C)CC[C@@H]([C@H]1C)[C@@]24OO3` was tested. Which Activity [2] did it give?
Answer: Its Activity is “inactive”.

Question: How did the Activity [3] turn out when `CC(C)C1=CC2OC3(CCC(NCCNc4ccnc5cc(Cl)ccc45)CC3)OOC2CC1` (centres undefined) was run?
Answer: The Activity was “Active”.

Question: With `COc1cc(NC(C)CCCNC2CCC3(CC2)OOC2CCC(C(C)C)=CC2O3)c2ncccc2c1` (centres undefined) as the compound, how does the Activity [4] read?
Answer: Its Activity is “Active”.

Question: With `C[C@H]1[C@H](OC(=O)CCC(=O)O)O[C@@H]2O[C@@]3(C)CC[C@H]4[C@H](C)CC[C@@H]1[C@@]24OO3` as the compound, how does the Activity [2] read?
Answer: Its Activity is “inactive”.

Question: What does the source list for `C[C@@H]1CC[C@H]2[C@@H](C)C(=O)O[C@@H]3O[C@@]4(C)CC[C@@H]1[C@]32OO4`?
Answer: Activity [5]: Active; Activity [2]: inactive
